Measurements reported in patent publication US11964938B2, “3-phenyl-4-hexynoic acid derivatives as GPR40 agonists” (CELON PHARMA S.A., priority 2018, dated 2024).
Counter-ions that a name gives are not always drawn.

Tests used:
OATP1A2 = biological target: T1, OATP1A2 (Homo sapiens, UniProt P46721); experiment: Uptake transporter inhibition assay, OATP1A2; assay type: cell-based; settings: HEK293 cells overexpressing transporter
T1 construct: host or cells: HEK293
T1 sequence (P46721 1-670): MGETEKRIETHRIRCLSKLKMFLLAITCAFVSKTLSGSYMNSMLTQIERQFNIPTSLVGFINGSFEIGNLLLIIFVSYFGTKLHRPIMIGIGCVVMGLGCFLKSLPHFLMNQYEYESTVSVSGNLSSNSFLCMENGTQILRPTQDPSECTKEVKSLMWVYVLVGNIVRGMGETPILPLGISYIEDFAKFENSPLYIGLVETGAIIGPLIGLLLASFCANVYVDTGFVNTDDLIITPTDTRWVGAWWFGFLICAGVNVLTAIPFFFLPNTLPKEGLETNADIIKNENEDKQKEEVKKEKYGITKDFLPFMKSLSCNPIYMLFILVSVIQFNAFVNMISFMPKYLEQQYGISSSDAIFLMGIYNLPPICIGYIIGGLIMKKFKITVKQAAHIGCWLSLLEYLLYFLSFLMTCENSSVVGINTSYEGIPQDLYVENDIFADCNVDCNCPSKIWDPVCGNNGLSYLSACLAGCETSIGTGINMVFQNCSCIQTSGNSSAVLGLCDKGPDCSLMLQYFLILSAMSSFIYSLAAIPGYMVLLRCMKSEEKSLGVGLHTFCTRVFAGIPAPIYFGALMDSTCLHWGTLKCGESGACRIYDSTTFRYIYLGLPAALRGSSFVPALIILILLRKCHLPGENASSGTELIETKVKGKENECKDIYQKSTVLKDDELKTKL
Description: (§1) Experiment B4: Bile Acid Transporters Inhibition in the Liver.
(§2) The compound was tested on a panel of 10 transporters: BSEP, MRP2, MRP3, MRP4 in a vesicular transport inhibition assay and NTCP, OAT1, OAT2v1, OATP1A2, OATP1B1, OATP1B3 in an uptake transporter inhibition assays.
(§3) Transporter uptake inhibition test was performed on mammal HEK293 cells overexpressing of a respective transporter. Cells were cultured at 37±1° C. and seeded on 96-well tissue culture plate at 1×10^5/well. Substrate was removed prior to experiment and cells were washed twice with 100 μl of respective buffer (HK pH 7.4 for OATP1B1 and HBSS pH 7.4 for NTCP, OAT1, OAT2v1, OATP1A2, and OATP1B3). Uptake studies were performed at 37±1° C. in 50 μl of respective buffer containing radioactively tagged substrate and tested compound or solvent.
(§4) After experiment cells were washed twice with 100 μl of ice-cold respective buffer and lysed with 50 μl of 0.1M NaOH. Transport of radioactively tagged substrate was determined by scintillation counter measurement.

OATP1B3 = biological target: T2, OATP1B3 (Homo sapiens, UniProt Q9NPD5); experiment: Uptake transporter inhibition assay, OATP1B3; assay type: cell-based; settings: HEK293 cells overexpressing transporter
T2 construct: host or cells: HEK293
T2 sequence (Q9NPD5 1-702): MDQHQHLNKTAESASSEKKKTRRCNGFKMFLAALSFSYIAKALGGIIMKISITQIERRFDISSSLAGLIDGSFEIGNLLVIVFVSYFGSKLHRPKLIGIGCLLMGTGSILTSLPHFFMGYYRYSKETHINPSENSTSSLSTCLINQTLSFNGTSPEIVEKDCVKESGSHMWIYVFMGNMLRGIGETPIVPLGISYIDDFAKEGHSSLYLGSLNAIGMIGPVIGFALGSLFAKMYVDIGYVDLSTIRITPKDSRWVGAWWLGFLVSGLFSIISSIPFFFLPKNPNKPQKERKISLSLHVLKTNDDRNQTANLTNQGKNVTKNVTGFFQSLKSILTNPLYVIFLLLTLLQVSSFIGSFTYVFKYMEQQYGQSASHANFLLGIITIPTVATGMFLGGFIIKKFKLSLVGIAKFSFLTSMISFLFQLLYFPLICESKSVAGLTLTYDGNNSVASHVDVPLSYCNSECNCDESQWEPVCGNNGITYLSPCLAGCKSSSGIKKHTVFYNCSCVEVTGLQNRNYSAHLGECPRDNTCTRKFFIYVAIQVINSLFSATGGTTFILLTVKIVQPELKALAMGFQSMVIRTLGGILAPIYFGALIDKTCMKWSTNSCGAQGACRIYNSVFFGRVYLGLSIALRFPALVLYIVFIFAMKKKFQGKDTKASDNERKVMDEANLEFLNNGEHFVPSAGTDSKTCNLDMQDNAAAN
Description: as §1, §2, §3, §4

[1] = test system: MIN6 (mouse insulinoma) cells; experiment: Glucose-dependent insulin release in mouse insulinoma cells (MIN6); assay type: cell-based; settings: multiplicity of insulin efflux increase in relation to control; 10 uM compound, 20 mM glucose, 1 hour
Description: Experiment B2: Glucose-Dependent Insulin Release in Mouse Insulinoma Cells (MIN6).
MIN6 (mouse insulinoma) cells were seeded on a plate covered with PDL (poly-D-lysine) at 5×10^5/well and cultured for 48 hours. […] Tested compounds, after dilution to the concentration of 10-40 uM in KRBH buffer with the addition of 20 mM glucose, were added to the cells and incubated for 1 hour to induce insulin release. Negative control was KRBH buffer with the addition of 2 mM glucose. Concentration of released insulin was determined using ELISA test (Mercodia).
Table 4 present MIN6Insulin @10 uM values for representative compounds of the invention. MIN6Insulin @10 uM value is a multiplicity of insulin efflux increase in relation to control experiment, following addition of 10 uM of tested compound.

[2] = test system: Wistar HAN Crl:WI (HAN) rats; experiment: Glucose tolerance test in vivo on rats; design: species or system rat; settings: 10 mg/kg oral single dose, blood
Description: Experiment B3: Glucose Tolerance Test In Vivo on Rats.
To evaluate glucose lowering effect of the compounds in in vivo study, glucose tolerance test (GTT) was performed. The study was performed on male outbred Wistar HAN Crl:WI (HAN) rats from Charles River, weight about 250-300 g, 8-10 weeks old. Rats were starved for 12 hours (with free access to water).
At time point t=0 animals were given orally a single dose of a compound (by a gastric tube) and immediately (t=0) and after 6 hour (t=6 h) intraperitoneal (i.p.) glucose bolus ([…]). At time points t=0 (just before oral administration of the compounds and intraperitoneal glucose administration), 0.25, 0.5, 1, 2, 2.5, 3, 6, 6.25, 7, 8, and 9 h blood samples from tail vein were collected from each animal for glucose level determination using Accu-chek glucometer (Roche Diagnostics) and additionally at t=0.25, 0.5, 1, 2, 2.5, and 3 h blood samples from tail vein were collected for insulin level measurement using ELISA test (Mercodia).
Tested compound were prepared in 5% DMSO/40% PEG300/55% PBS vehicle and administered at the dose of 10 mg/kg body weight in a volume of 0.5 ml/100 g body weight. After 4 hours after tested compound administration animals were given standard diet to the cages. Decrease of AUC value for glucose level in blood was calculated and the results for selected compounds of the invention are presented in Table 5. Analysis was performed using GraphPad prism software.

type 2 diabetes patients = settings: cited from earlier work

SMILES	IC50 (OATP1A2) [µM]	IC50 (OATP1B3) [µM]	MIN6Insulin @10 uM [1]	AUC for glucose (0-540 min.) ([2]; i.p. glucose bolus at t=0 and 6 h)	AUC for insulin (0-180 min.) ([2]; i.p. glucose bolus)	side effects (type 2 diabetes patients; clinical development, associated with inhibition of bile acids transport)	glucose levels (type 2 diabetes patients; phase 3 clinical trials, type 2 diabetes patients)
CC#C[C@@H](CC(=O)O)c1ccc(OCC(C)=C(C)C)cc1 [Example S1, (3S)-3-{4-[(2,3-dimethylbut-2-en-1-yl)oxy]phenyl}hex-4-ynoic acid calcium salt]	118	42.9					
Cc1cc(OCCCS(C)(=O)=O)cc(C)c1-c1cccc(COc2ccc3c(c2)OC[C@H]3CC(=O)O)c1 [Example R1, 2[(3S)-6-({3-[4-(3-methanesulfonylpropoxy)-2,6-dimethylphenyl]-phenyl}methoxy)-2,3-dihydro-1-benzofuran-3-yl]acetic acid, reference compound]	10.6	3.44	1.336	30950.6	210.5	side effects on the liver	ability to reduce glucose levels
